Experimental data from patent US9617267B2, “Compounds and methods for kinase modulation, and indications therefor” (Plexxikon Inc., priority 2009, dated 2017).
Read-outs that look alike come from different tables or passages of the source.

Key:
CYP2C19 = CYP2C19 (Homo sapiens (Human), UniProt P33261); assay: CYP enzyme inhibition, fluorescent substrate (CEC)
Method: (§1) CYP (Cytochrome P450) enzymes are the major drug metabolizing enzymes present in the liver. The inhibition of CYP enzyme activity (IC50) for each of CYP1A2, CYP2C19, CYP2C9, CYP2D6, CYP3A4(BFC) and CYP3A4(BQ) is determined for compounds, where inhibition of metabolism of a known substrate leads to a decrease in the fluorescence of the metabolized product. The fluorescence of the product is monitored as a function of compound concentration.
(§2) Compounds are dissolved in dimethyl sulfoxide to a concentration of 100 mM. These are diluted 1 μL into 82 μL of acetonitrile. […] These are then serially diluted 1:1 (160 μL to 160 μL co-factor mix) for a total of 10 points. A 10 μL aliquot of this final mixture is dispensed into 384 well assay plates and incubated for 10 minutes at 37° C. […] Assay plates are incubated at 37° C. […] The signal versus compound concentration is used to determine the IC50. The enzymes and substrates for this assay are obtained from BD Biosciences.

CYP3A4(BFC) = CYP3A4(BFC) (Homo sapiens (Human), UniProt P08684); assay: CYP enzyme inhibition, fluorescent substrate BFC
Chain of CYP3A4(BFC) (P08684 whole entry): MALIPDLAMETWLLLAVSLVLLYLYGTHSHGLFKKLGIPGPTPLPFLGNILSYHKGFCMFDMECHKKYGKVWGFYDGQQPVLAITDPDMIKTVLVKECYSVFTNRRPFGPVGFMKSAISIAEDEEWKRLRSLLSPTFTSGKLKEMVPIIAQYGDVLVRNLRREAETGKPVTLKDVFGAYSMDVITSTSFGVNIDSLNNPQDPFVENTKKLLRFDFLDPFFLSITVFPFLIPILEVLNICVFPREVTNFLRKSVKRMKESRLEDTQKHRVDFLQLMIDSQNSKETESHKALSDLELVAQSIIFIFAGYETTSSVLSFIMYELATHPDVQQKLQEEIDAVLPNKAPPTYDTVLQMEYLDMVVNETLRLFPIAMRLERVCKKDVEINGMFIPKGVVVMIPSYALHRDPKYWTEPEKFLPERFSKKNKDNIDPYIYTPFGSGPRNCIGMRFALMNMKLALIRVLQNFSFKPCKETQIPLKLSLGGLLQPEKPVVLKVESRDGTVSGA
Method: as §1, §2

B-Raf V600E = B-Raf V600E (Homo sapiens (Human), UniProt P15056, V600E); assay: B-Raf V600E kinase activity biochemical assay (AlphaScreen, biotin-MEK1 phosphorylation); settings: for IC50: B-Raf V600E; for Biochemical activity ratio V600E/C: ratio of IC50 B-Raf V600E / c-Raf-1
Chain of B-Raf V600E (P15056 whole entry V600E): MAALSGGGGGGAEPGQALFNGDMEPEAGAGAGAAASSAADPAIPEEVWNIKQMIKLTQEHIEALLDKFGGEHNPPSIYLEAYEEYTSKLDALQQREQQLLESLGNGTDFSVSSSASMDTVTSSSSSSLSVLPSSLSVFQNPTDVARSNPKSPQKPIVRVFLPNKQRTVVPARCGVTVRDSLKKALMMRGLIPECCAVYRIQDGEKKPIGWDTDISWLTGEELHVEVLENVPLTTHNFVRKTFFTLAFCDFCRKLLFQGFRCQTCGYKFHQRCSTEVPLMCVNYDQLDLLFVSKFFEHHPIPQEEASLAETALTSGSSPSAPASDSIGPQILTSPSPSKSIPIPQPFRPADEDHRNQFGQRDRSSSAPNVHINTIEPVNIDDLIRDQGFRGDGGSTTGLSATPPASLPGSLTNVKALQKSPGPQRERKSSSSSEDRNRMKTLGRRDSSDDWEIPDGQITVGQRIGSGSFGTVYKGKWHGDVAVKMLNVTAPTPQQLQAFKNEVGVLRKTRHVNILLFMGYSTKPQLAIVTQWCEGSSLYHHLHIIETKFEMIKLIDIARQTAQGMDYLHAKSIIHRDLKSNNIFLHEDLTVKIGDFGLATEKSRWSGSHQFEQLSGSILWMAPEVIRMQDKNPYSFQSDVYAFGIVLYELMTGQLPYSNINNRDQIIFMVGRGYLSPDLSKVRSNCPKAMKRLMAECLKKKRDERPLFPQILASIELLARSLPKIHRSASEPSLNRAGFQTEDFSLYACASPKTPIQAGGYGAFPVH
Method: (§3) Compounds to be tested are diluted in dimethyl sulfoxide to a concentration of 0.1 mM. These are serially diluted 15 μL into 30 μL of dimethyl sulfoxide seven times in 96 well plates for a total of 8 dilution points, and for each dilution point 1 μL is added to a well of an assay plate. […] The reaction is started with addition of 10 μL of 200 μM ATP (i.e. final 100 μM ATP). After incubation of the kinase reaction for 45 minutes at room temperature, 5 μL/well of Stop Solution is added (25 mM Hepes pH 7.5, 100 mM EDTA, 0.01% BSA with donor beads (Streptavidin coated beads, Perkin Elmer), acceptor beads (Protein A coated, Perkin Elmer), and anti phosphor MEK1/2 antibody (CellSignal), each at final concentration 10 μg/mL). The plates are incubated for 3 hours at room temperature and read on Envision reader (Perkin Elmer). […] The signal vs. compound concentration is used to determine the IC50.

CYP2D6 = CYP2D6 (Homo sapiens (Human), UniProt P10635); assay: CYP enzyme inhibition, fluorescent substrate (AMMC); assay type: in vitro ADME; settings: read-out: Cyp IC50 2D6
Chain of CYP2D6 (P10635 whole entry): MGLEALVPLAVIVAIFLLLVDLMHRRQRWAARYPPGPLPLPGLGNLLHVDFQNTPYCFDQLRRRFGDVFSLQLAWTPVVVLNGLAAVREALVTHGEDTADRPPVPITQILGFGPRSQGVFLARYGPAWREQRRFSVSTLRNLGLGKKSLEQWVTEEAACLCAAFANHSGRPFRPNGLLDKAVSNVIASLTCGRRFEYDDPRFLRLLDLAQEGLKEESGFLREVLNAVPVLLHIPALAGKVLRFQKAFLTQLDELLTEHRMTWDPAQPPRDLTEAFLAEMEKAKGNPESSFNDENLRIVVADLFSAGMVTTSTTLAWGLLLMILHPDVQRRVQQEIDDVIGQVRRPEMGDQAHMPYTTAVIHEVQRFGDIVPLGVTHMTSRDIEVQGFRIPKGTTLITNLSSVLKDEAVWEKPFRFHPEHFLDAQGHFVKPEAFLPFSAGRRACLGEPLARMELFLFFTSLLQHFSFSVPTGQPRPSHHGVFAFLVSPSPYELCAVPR
Method: as §1
(§4) Compounds are dissolved in dimethyl sulfoxide to a concentration of 100 mM. These are diluted 1 μL into 82 μL of acetonitrile. An 11 μL aliquot of this solution is then added to 204 μL of cofactor mix (1.3% NADPH Regeneration system Solution A, 1.04% NADPH Regeneration system Solution B from BD Biosciences, 5% acetonitrile and 0.05% dimethyl sulfoxide). These are then serially diluted 1:1 (160 μL to 160 μL co-factor mix) for a total of 10 points. A 10 μL aliquot of this final mixture is dispensed into 384 well assay plates and incubated for 10 minutes at 37° C. Enzyme and substrate mix (10 μL; 0.5 pmol CYP1A2/5 μM CEC; 1.0 pmol CYP2C9/75 μM MFC; 0.5 pmol CYP2C19/25 μM CEC; 1.5 pmol CYP2D6/1.5 μM AMMC; 1.0 pmol CYP3A4/50 μM BFC; or 1.0 pmol CYP3A4/40 μM BQ) is added to these assay plates. Assay plates are incubated at 37° C. (CYP1A2-15 min; CYP2C9-45 min; CYP2C19, 2D6 and 3A4-30 min) and read in a Tecan Safire 2 plate reader (CYP1A2, 2C19 and 3A4 409 ex/460 em; CYP2C9 and 2D6 409 ex/530 em). The signal versus compound concentration is used to determine the IC50. The enzymes and substrates for this assay are obtained from BD Biosciences.

c-Raf-1 = c-Raf-1 (Homo sapiens, UniProt P04049); assay: c-Raf-1 kinase activity biochemical assay (AlphaScreen, biotin-MEK1 phosphorylation)
Chain of c-Raf-1 (P04049 whole entry, looked up): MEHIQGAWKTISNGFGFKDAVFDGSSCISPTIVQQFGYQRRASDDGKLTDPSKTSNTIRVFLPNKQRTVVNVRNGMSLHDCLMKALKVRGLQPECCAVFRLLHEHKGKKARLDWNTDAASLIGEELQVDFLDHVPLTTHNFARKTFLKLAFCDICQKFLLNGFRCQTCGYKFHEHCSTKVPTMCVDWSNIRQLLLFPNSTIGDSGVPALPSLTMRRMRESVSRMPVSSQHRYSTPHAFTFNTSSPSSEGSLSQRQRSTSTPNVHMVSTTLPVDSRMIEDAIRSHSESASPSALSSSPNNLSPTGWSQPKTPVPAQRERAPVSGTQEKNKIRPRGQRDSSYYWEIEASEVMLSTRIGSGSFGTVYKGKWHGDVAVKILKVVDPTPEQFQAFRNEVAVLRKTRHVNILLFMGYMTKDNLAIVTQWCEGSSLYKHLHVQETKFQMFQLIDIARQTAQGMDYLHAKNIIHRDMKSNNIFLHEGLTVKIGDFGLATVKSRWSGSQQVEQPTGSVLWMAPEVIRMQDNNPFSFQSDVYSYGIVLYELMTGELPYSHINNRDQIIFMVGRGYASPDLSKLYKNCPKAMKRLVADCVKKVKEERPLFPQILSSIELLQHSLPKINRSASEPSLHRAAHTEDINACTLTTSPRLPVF
Method: as §3

CYP2C9 = CYP2C9 (Homo sapiens (Human), UniProt P11712); assay: CYP enzyme inhibition, fluorescent substrate (MFC)
Chain of CYP2C9 (P11712 whole entry): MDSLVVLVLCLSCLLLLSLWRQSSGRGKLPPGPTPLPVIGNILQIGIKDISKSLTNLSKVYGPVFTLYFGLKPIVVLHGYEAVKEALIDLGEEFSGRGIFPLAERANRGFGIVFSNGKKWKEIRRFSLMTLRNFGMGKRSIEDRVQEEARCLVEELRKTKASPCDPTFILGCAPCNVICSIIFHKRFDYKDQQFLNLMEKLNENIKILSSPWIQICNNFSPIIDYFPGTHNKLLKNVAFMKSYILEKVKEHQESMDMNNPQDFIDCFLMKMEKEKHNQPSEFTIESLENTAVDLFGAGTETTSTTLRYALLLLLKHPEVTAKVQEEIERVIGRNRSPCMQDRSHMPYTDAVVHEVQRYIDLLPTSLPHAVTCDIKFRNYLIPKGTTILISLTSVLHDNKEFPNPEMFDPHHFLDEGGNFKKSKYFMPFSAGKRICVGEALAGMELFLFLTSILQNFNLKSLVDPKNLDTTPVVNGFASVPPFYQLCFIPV
Method: as §1, §2

CYP1A2 = CYP1A2 (Homo sapiens (Human), UniProt P05177); assay: CYP enzyme inhibition, fluorescent substrate (CEC); settings: human, 15 min
Chain of CYP1A2 (P05177 whole entry): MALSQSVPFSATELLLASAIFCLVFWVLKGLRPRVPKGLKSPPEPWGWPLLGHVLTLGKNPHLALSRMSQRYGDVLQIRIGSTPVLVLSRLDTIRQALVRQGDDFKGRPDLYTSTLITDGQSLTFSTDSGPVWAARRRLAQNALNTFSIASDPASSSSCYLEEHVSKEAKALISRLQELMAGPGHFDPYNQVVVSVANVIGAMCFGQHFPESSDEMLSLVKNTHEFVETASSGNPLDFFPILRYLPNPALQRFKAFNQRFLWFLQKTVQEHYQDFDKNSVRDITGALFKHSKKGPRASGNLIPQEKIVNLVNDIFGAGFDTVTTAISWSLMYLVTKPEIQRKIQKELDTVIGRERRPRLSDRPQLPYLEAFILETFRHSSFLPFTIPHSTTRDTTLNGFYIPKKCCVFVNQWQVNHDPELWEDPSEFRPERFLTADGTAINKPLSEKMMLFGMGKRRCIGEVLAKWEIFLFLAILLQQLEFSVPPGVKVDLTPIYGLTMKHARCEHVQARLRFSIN
Method: as §1, §4

B-Raf [1] = target: B-Raf (Homo sapiens (Human), UniProt P15056); assay: B-Raf kinase activity biochemical assay (AlphaScreen, biotin-MEK1 phosphorylation); settings: B-Raf
Chain of B-Raf (Homo sapiens (Human), UniProt P15056) (P15056 whole entry): as the sequence (P15056 whole entry V600E) above, with E600V counted along it
Method: as §3

B-Raf [2] = assay: as above; settings: for Biochemical activity ratio B/V600E: ratio of IC50 B-Raf / B-Raf V600E; for Biochemical activity ratio B/C: ratio of IC50 B-Raf / c-Raf-1
Method: as §3

[3] = Relative solubility by turbidity threshold concentration in aqueous buffers (pH 1.5, 4.5, 6.8, 7.4); assay type: physicochemical; settings: for turbidity threshold (L, M, H) 1.4: pH 1.4 [sic] (method: SGF pH 1.5); for turbidity threshold (L, M, H) 4.5: pH 4.5 (SIF); for turbidity threshold (L, M, H) 6.8: pH 6.8 (SIF); for turbidity threshold (L, M, H) 7.4: pH 7.4 (HEPES)
Method: As an indication of relative solubility, the turbidity of compounds in aqueous solutions is assessed. To assess possible compound properties in different physiological compartments, such as stomach, intestine, and blood, a series of aqueous buffers with varying pH is used. Thus each compound is diluted into four different physiologically relevant buffers and solution turbidity is measured by spectrophotometry.
Compounds are dissolved at a concentration of 25 mM in dimethyl sulfoxide, then serially diluted 1:1 into a 96 well plate, diluting 10 times in pure dimethyl sulfoxide, with the final well of each row a dimethyl sulfoxide blank. In an assay plate, 99 μL of appropriate buffer is added to each well, and 1 μL of each sample dilution is added to the buffer, achieving a range of final total concentrations in aqueous solutions having different pH. The buffers used are Simulated Gastric Fluid (SGF-pH 1.5) 0.5M NaCl, pH 1.5; Simulated Intestinal fluid (SIF-pH 4.5 and pH 6.8) 0.05M NaH2PO4, pH 4.5 and 6.8; and Hepes Buffer (HEPES-pH 7.4) 10 mM HEPES, 150 mM NaCl, pH 7.4. Control compounds pyrene, estriol and propranolol HCl are also assessed. Plates are spun and then mixed for 1 minute, and the absorbance is read using a Tecan Safire II to read wavelengths in the visible range (490, 535, and 650 nm) at four locations per well, reflecting the degree of turbidity present. The average optical density for each wavelength in each well is graphed vs. compound concentration, and the concentration at which the curve crosses a threshold O.D. of 0.01 for each wavelength is reported as the endpoint turbidity assay result. The average of the three wavelengths is used to compare turbidity of compounds. Compounds are considered to have low solubility if the threshold concentration is <31.3 μM, moderate solubility if the threshold concentration is 31.3 μM to 250 μM, and high solubility if the threshold concentration is >250 μm.
The following table indicates the relative solubility (L=low, M=moderate, H=high) based on turbidity threshold concentration at each pH for exemplary compounds according to the invention as indicated: […]

[4] = read-out: Cyp IC50 2C9, CYP2C9, substrate MFC

Chain of CYP2C19 (P33261 whole entry): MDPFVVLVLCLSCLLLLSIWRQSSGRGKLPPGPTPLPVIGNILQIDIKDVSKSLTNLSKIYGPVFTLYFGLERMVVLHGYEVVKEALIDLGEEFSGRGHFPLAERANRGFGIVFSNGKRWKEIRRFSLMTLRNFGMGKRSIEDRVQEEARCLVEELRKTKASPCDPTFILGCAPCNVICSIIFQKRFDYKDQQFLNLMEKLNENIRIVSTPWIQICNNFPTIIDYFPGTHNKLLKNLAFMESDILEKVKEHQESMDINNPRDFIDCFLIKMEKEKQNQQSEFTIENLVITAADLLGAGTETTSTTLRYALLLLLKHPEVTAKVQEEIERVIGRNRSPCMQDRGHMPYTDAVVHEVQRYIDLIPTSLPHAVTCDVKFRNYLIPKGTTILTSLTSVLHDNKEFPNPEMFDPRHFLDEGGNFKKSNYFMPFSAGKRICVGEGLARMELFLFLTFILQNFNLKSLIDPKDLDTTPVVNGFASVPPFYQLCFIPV

O=C(c1c(F)ccc(NS(=O)(=O)c2ccc(C(F)(F)F)cc2)c1F)c1c[nH]c2ncnc(NC3CCCC3)c12 [P-1035, N-[3-(4-Cyclopentylamino-7H-pyrrolo[2,3-d]pyrimidine-5-carbonyl)-2,4-difluoro-phenyl]-4-trifluoromethyl-benzenesulfonamide]
IC50 (CYP2C19): 5 to 10 µM
IC50 (CYP3A4(BFC)): 5 to 10 µM
IC50 (B-Raf V600E): < 0.1 µM
Biochemical activity ratio V600E/C (B-Raf V600E): >10
IC50 (CYP2D6): > 10 µM
IC50 (c-Raf-1): < 0.1 µM
IC50 (CYP2C9; [4]): > 10 µM
IC50 (CYP1A2): > 10 µM
IC50 (B-Raf [1]): < 0.1 µM
Biochemical activity ratio B/V600E (B-Raf [2]): 0.1-10
Biochemical activity ratio B/C (B-Raf [2]): >10
turbidity threshold (L, M, H) 1.4 [3]: L (low solubility if the threshold concentration is <31.3 μM)
turbidity threshold (L, M, H) 4.5 [3]: L (low solubility if the threshold concentration is <31.3 μM)
turbidity threshold (L, M, H) 6.8 [3]: L (low solubility if the threshold concentration is <31.3 μM)
turbidity threshold (L, M, H) 7.4 [3]: L (low solubility if the threshold concentration is <31.3 μM)

CCCc1ccc(S(=O)(=O)Nc2ccc(F)c(C(=O)c3c[nH]c4ncnc(Cl)c34)c2F)cc1 [P-1034, N-[3-(4-Chloro-7H-pyrrolo[2,3-d]pyrimidine-5-carbonyl)-2,4-difluoro-phenyl]-4-propyl-benzenesulfonamide]
IC50 (CYP2C19): 5 to 10 µM
IC50 (CYP3A4(BFC)): 5 to 10 µM
IC50 (B-Raf V600E): > 0.1 µM
Biochemical activity ratio V600E/C (B-Raf V600E): >10
IC50 (CYP2D6): > 10 µM
IC50 (c-Raf-1): < 0.1 µM
IC50 (CYP2C9; [4]): > 10 µM
IC50 (CYP1A2): > 10 µM
IC50 (B-Raf [1]): > 0.1 µM
Biochemical activity ratio B/V600E (B-Raf [2]): 0.1-10
Biochemical activity ratio B/C (B-Raf [2]): 0.1-10
turbidity threshold (L, M, H) 1.4 [3]: M (moderate solubility if the threshold concentration is 31.3 μM to 250 μM)
turbidity threshold (L, M, H) 4.5 [3]: M (moderate solubility if the threshold concentration is 31.3 μM to 250 μM)
turbidity threshold (L, M, H) 6.8 [3]: M (moderate solubility if the threshold concentration is 31.3 μM to 250 μM)
turbidity threshold (L, M, H) 7.4 [3]: M (moderate solubility if the threshold concentration is 31.3 μM to 250 μM)

CCCc1ccc(S(=O)(=O)Nc2ccc(F)c(C(=O)c3c[nH]c4ncnc(OCC)c34)c2F)cc1 [P-1038, N-[3-(4-Ethoxy-7H-pyrrolo[2,3-d]pyrimidine-5-carbonyl)-2,4-difluoro-phenyl]-4-propyl-benzenesulfonamide]
IC50 (CYP2C19): 5 to 10 µM
IC50 (CYP3A4(BFC)): 5 to 10 µM
IC50 (B-Raf V600E): > 0.1 µM
Biochemical activity ratio V600E/C (B-Raf V600E): >10
IC50 (CYP2D6): > 10 µM
IC50 (c-Raf-1): < 0.1 µM
IC50 (CYP2C9): 5 to 10 µM
IC50 (CYP1A2): > 10 µM
IC50 (B-Raf [1]): < 0.1 µM
Biochemical activity ratio B/V600E (B-Raf [2]): 0.1-10
Biochemical activity ratio B/C (B-Raf [2]): >10

CC(C)Cc1ncnc2[nH]cc(C(=O)c3c(F)ccc(NS(=O)(=O)c4ccc(C(F)(F)F)cc4)c3F)c12 [P-1015, N-[2,4-Difluoro-3-(4-isobutyl-7H-pyrrolo[2,3-d]pyrimidine-5-carbonyl)-phenyl]-4-trifluoromethyl-benzenesulfonamide]
IC50 (CYP2C19; read-out: Cyp IC50 2C19, CYP2C19, substrate CEC): > 10 µM
IC50 (CYP3A4(BFC)): 5 to 10 µM
IC50 (B-Raf V600E): > 0.1 µM
Biochemical activity ratio V600E/C (B-Raf V600E): >10
IC50 (CYP2D6): > 10 µM
IC50 (c-Raf-1): < 0.1 µM
IC50 (CYP2C9; [4]): > 10 µM
IC50 (CYP1A2): > 10 µM
IC50 (B-Raf [1]): > 0.1 µM
Biochemical activity ratio B/V600E (B-Raf [2]): 0.1-10
Biochemical activity ratio B/C (B-Raf [2]): >10

O=C(c1c(F)ccc(NS(=O)(=O)c2ccc(C(F)(F)F)cc2)c1F)c1c[nH]c2nccc(NC3CCOCC3)c12 [P-2014, N-{2,4-Difluoro-3-[4-(tetrahydro-pyran-4-ylamino)-1H-pyrrolo[2,3-b]pyridine-3-carbonyl]-phenyl}-4-trifluoromethyl-benzenesulfonamide]
IC50 (B-Raf V600E): > 0.1 µM
Biochemical activity ratio V600E/C (B-Raf V600E): >10
IC50 (c-Raf-1): < 0.1 µM
IC50 (B-Raf [1]): > 0.1 µM
Biochemical activity ratio B/V600E (B-Raf [2]): 0.1-10
Biochemical activity ratio B/C (B-Raf [2]): 0.1-10
turbidity threshold (L, M, H) 1.4 [3]: L (low solubility if the threshold concentration is <31.3 μM)
turbidity threshold (L, M, H) 4.5 [3]: L (low solubility if the threshold concentration is <31.3 μM)
turbidity threshold (L, M, H) 6.8 [3]: L (low solubility if the threshold concentration is <31.3 μM)
turbidity threshold (L, M, H) 7.4 [3]: L (low solubility if the threshold concentration is <31.3 μM)
